Drawing on patent US20240208992A1, “MACROCYCLES AS CFTR MODULATORS” (Idorsia Pharmaceuticals Ltd, priority 2021, published 2024), this text covers EC50 and Emax for eleven molecules.

What is called EC50 is the concentration at which the effect is half-maximal. One may read the Emax as the greatest response seen or fitted, relative to the assay's reference.

The target of this experiment is human F508del-CFTR (Homo sapiens, UniProt P13569, DEL508-508). The experiment is described as follows: F508del-CFTR cell surface expression (corrector activity), DiscoveRx ß-galactosidase complementation chemiluminescence assay in recombinant U2OS cell line.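 For all read-outs here: U2OS cells co-expressing ProLink-tagged F508del-CFTR and a membrane-anchored enzyme acceptor, where more surface CFTR restores β-galactosidase activity measured by chemiluminescence.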 To be noted: U2OS cell line, 16h compound incubation; for EC50: EC50, F508del-CFTR cell surface expression, geomean values; for Emax: U2OS, in relation to the Emax of the corrector lumacaftor (=100%), arithmetic mean values.
Sequence of human F508del-CFTR (P13569 with tags, fused parts or gaps DEL508-508): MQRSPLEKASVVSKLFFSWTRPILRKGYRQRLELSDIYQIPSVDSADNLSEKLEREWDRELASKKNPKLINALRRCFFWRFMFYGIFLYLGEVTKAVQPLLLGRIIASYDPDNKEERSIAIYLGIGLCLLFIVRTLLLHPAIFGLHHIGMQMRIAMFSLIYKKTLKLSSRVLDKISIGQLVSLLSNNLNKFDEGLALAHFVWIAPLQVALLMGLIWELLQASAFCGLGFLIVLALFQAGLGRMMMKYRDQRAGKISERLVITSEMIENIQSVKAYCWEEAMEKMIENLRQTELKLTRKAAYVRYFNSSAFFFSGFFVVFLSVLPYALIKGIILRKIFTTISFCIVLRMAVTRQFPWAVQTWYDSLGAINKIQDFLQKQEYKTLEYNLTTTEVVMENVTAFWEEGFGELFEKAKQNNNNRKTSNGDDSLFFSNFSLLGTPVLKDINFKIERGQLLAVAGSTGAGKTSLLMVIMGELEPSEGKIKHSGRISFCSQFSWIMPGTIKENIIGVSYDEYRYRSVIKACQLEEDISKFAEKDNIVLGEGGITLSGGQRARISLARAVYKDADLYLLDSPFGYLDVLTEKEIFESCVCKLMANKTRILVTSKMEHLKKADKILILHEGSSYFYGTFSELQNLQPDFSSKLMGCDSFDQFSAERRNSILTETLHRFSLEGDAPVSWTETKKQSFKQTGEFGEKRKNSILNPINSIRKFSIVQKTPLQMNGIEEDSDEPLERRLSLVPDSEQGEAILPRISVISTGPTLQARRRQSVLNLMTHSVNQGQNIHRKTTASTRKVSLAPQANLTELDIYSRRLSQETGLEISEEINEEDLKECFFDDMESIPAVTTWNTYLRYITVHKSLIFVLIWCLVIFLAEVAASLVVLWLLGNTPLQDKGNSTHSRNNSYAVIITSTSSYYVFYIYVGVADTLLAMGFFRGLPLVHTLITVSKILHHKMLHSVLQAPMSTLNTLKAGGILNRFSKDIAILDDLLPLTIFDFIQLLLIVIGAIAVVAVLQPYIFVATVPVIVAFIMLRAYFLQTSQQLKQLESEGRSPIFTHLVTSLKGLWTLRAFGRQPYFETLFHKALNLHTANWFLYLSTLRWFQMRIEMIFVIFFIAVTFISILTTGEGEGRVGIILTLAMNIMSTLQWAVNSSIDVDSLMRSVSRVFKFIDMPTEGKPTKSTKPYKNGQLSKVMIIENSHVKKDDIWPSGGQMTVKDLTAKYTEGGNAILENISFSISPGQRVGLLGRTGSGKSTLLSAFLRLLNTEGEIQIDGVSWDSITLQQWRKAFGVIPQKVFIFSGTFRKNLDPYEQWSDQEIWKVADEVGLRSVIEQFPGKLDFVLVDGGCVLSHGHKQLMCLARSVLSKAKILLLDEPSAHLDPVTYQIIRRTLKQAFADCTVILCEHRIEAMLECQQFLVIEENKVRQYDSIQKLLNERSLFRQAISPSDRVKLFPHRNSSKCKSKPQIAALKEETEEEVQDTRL

Turning to `COc1cc2c(cc1OC)C(=O)N[C@H](C(=O)NCCc1ccc3c(c1)OCCC3)CC(=O)N(C)[C@@H](CC(C)C)C(=O)N(C)CC(=O)N[C@H](Cc1ccccc1)CO2` [Example 148, (3R,9S,13S)-3-benzyl-N-(2-(chroman-7-yl)ethyl)-9-isobutyl-17,18-dimethoxy-7,10-dimethyl-5,8,11,15-tetraoxo-2,3,4,5,6,7,8,9,10,11,12,13,14,15-tetradecahydrobenzo[p][1]oxa[4,7,10,14]tetraazacycloheptadecine-13-carboxamide], the EC50 amounted to 811 nM and the Emax is 198%.

`COc1cccc2c1C(=O)N[C@H](C(=O)NCCc1ccc3c(c1)OCCO3)CC(=O)N(C)[C@@H](CC(C)C)C(=O)N(CCC1CCCCC1)CC(=O)N[C@H](Cc1ccccc1)CO2` [Example 149, (3R,9S,13S)-3-benzyl-7-(2-cyclohexylethyl)-N-(2-(2,3-dihydrobenzo[b][1,4]dioxin-6-yl)ethyl)-9-isobutyl-16-methoxy-10-methyl-5,8,11,15-tetraoxo-2,3,4,5,6,7,8,9,10,11,12,13,14,15-tetradecahydrobenzo[p][1]oxa[4,7,10,14]tetraazacycloheptadecine-13-carboxamide]: the EC50 amounted to 191 nM and the Emax came out at 259%.

As to `COc1cccc2c1C(=O)N[C@H](C(=O)NCCc1cccc(OC(F)F)c1)CC(=O)N(C)[C@@H](CC(C)C)C(=O)N(CCC1CCCCC1)CC(=O)N[C@H](Cc1ccccc1)CO2` [Example 150, (3R,9S,13S)-3-benzyl-7-(2-cyclohexylethyl)-N-(3-(difluoromethoxy)phenethyl)-9-isobutyl-16-methoxy-10-methyl-5,8,11,15-tetraoxo-2,3,4,5,6,7,8,9,10,11,12,13,14,15-tetradecahydrobenzo[p][1]oxa[4,7,10,14]tetraazacycloheptadecine-13-carboxamide], the EC50 amounted to 151 nM and the Emax was 130%.

Consider `COc1ccc(CCNC(=O)[C@@H]2CC(=O)N(C)[C@@H](CC(C)C)C(=O)N(C)CC(=O)N[C@H](Cc3ccccc3)COc3cc4c(cc3C(=O)N2)OCO4)cc1` [Example 153, (7R,13S,17S)-7-benzyl-13-isobutyl-N-(4-methoxyphenethyl)-11,14-dimethyl-9,12,15,19-tetraoxo-6,7,8,9,10,11,12,13,14,15,16,17,18,19-tetradecahydro-[1,3]dioxolo[4′,5′:4,5]benzo[1,2-p][1]oxa[4,7,10,14]tetraazacycloheptadecine-17-carboxamide], for which the EC50 came out at 460 nM and the Emax was determined as 115%.

As for `CC(C)C[C@H]1C(=O)N(CCC2CCOCC2)CC(=O)N[C@H](Cc2ccccc2)COc2cc3c(cc2C(=O)N[C@H](C(=O)NCCc2ccc4c(c2)OCO4)CC(=O)N1C)OCO3` [Example 154, (7R,13S,17S)-N-(2-(benzo[d][1,3]dioxol-5-yl)ethyl)-7-benzyl-13-isobutyl-14-methyl-9,12,15,19-tetraoxo-11-(2-(tetrahydro-2H-pyran-4-yl)ethyl)-6,7,8,9,10,11,12,13,14,15,16,17,18,19-tetradecahydro-[1,3]dioxolo[4′,5′:4,5]benzo[1,2-p][1]oxa[4,7,10,14]tetraazacycloheptadecine-17-carboxamide], the EC50 was found to be 398 nM and the Emax stood at 102%.

In the case of `COc1cc(CCNC(=O)[C@@H]2CC(=O)N(C)[C@@H](CC(C)C)C(=O)N(CCC3CCCCC3)CC(=O)N[C@H](Cc3ccccc3)COc3cccc(OC)c3C(=O)N2)ccn1` [Example 158, (3R,9S,13S)-3-benzyl-7-(2-cyclohexylethyl)-9-isobutyl-16-methoxy-N-(2-(2-methoxypyridin-4-yl)ethyl)-10-methyl-5,8,11,15-tetraoxo-2,3,4,5,6,7,8,9,10,11,12,13,14,15-tetradecahydrobenzo[p][1]oxa[4,7,10,14]tetraazacycloheptadecine-13-carboxamide], the EC50 was 315 nM and the Emax is 169%.

In the case of `COc1cc2c(cc1OC)C(=O)N[C@H](C(=O)NCCc1ccc3c(c1)OCO3)CC(=O)N(C)[C@@H](CC(C)C)C(=O)N(C[C@H]1CCCCO1)CC(=O)N[C@H](Cc1ccccc1)CO2` [Example 159, (3R,9S,13S)-N-(2-(benzo[d][1,3]dioxol-5-yl)ethyl)-3-benzyl-9-isobutyl-17,18-dimethoxy-10-methyl-5,8,11,15-tetraoxo-7-(((R)-tetrahydro-2H-pyran-2-yl)methyl)-2,3,4,5,6,7,8,9,10,11,12,13,14,15-tetradecahydrobenzo[p][1]oxa[4,7,10,14]tetraazacycloheptadecine-13-carboxamide], the EC50 turned out to be 385 nM and the Emax was found to be 100%.

Turning to `COc1cc2c(cc1OC)C(=O)N[C@H](C(=O)NCCc1ccc3c(c1)OCO3)CC(=O)N(C)[C@@H](CC(C)C)C(=O)N(C[C@@H]1CCCCO1)CC(=O)N[C@H](Cc1ccccc1)CO2` [Example 160, (3R,9S,13S)-N-(2-(benzo[d][1,3]dioxol-5-yl)ethyl)-3-benzyl-9-isobutyl-17,18-dimethoxy-10-methyl-5,8,11,15-tetraoxo-7-(((S)-tetrahydro-2H-pyran-2-yl)methyl)-2,3,4,5,6,7,8,9,10,11,12,13,14,15-tetradecahydrobenzo[p][1]oxa[4,7,10,14]tetraazacycloheptadecine-13-carboxamide], the EC50 worked out at 224 nM and the Emax was 116%.

With `COc1cc2c(cc1OC)C(=O)N[C@H](C(=O)NCCc1ccc3c(c1)OCCCC3)CC(=O)N(C)[C@@H](CC(C)C)C(=O)N(C)CC(=O)N[C@H](Cc1ccccc1)CO2` [Example 161, (3R,9S,13S)-3-benzyl-9-isobutyl-17,18-dimethoxy-7,10-dimethyl-5,8,11,15-tetraoxo-N-(2-(2,3,4,5-tetrahydrobenzo[b]oxepin-8-yl)ethyl)-2,3,4,5,6,7,8,9,10,11,12,13,14,15-tetradecahydrobenzo[p][1]oxa[4,7,10,14]tetraazacycloheptadecine-13-carboxamide], the EC50 turned out to be 250 nM and the maximum response (Emax) worked out at 137%.

Consider `COc1ccc(C2(CNC(=O)[C@@H]3CC(=O)N(C)[C@@H](CC(C)C)C(=O)N(C)C4(CC4)C(=O)N[C@H](Cc4ccccc4)COc4cnc5ccc(F)cc5c4C(=O)N3)CC2)cc1OC` [Example 166, (3′S,7′S,13′R)-13′-benzyl-N-((1-(3,4-dimethoxyphenyl)cyclopropyl)methyl)-20′-fluoro-7′-isobutyl-6′,9′-dimethyl-1′,5′,8′,11′-tetraoxo-2′,3′,4′,5′,6′,7′,8′,9′,11′,12′,13′,14′-dodecahydro-1′H-spiro[cyclopropane-1,10′-[1]oxa[4,7,10,14]tetraazacycloheptadecino[17,16-c]quinoline]-3′-carboxamide], for which the EC50 was 624 nM and the Emax was 111%.

As for `CC(C)C[C@H]1C(=O)N(C)C2(CC2)C(=O)N[C@H](Cc2ccccc2)COc2cnc3ccc(F)cc3c2C(=O)N[C@H](C(=O)NCCc2cccc(S(C)(=O)=O)c2)CC(=O)N1C` [Example 167, (3′S,7′S,13′R)-13′-benzyl-20′-fluoro-7′-isobutyl-6′,9′-dimethyl-N-(3-(methylsulfonyl)phenethyl)-1′,5′,8′,11′-tetraoxo-2′,3′,4′,5′,6′,7′,8′,9′,11′,12′,13′,14′-dodecahydro-1′H-spiro[cyclopropane-1,10′-[1]oxa[4,7,10,14]tetraazacycloheptadecino[17,16-c]quinoline]-3′-carboxamide], the half-maximal effective concentration (EC50) worked out at 822 nM and the Emax was 238%.
